The source of these data is patent US10167270B2, “Substituted quinazoline compounds and uses thereof for modulating glucocerebrosidase activity” (Northwestern University, priority 2015, dated 2019).

The experiment concerns the target Glucocerebrosidase (Homo sapiens (Human), UniProt P04062). The experiment is described as follows: Glucocerebrosidase activity assay with blue substrate (4MU-Glc). Conditions: for IC50: read-out: IC50 or AC50 (inh); for AC50 / IC50 or AC50 (act): marked (act), activator; for AC50: read-out: IC50 or AC50 (act). Format: biochemical. The method, then:
The compounds in DMSO solution 0.5 μL/well were transferred to a black 96-well plate. The final titration was 24 nM to 50 μM, 12 concentrations, 2 times dilution. […] After 5 min of incubation at room temperature, the enzyme reaction was initiated by the addition of 33 μL/well blue substrate. Final concentrations of the blue substrate (4MU-Glc) was 1.5 mM. The blue substrate reaction was terminated by the addition of 33 μL/well stop solution (1 M NaOH and 1 M glycine mixture, pH 10) after 30 min of incubation at 37° C. The fluorescence was then measured in the Biotek Synergy H1 multi-mode plate reader with Ex=365 nm and Em=440 nm.
Additional compounds were prepared and tested according to the procedures provided in the examples above.
Additional substituted quinazoline compounds were prepared and tested according to the procedures provided in the examples above.

Glucocerebrosidase, sequence (P04062 40-536): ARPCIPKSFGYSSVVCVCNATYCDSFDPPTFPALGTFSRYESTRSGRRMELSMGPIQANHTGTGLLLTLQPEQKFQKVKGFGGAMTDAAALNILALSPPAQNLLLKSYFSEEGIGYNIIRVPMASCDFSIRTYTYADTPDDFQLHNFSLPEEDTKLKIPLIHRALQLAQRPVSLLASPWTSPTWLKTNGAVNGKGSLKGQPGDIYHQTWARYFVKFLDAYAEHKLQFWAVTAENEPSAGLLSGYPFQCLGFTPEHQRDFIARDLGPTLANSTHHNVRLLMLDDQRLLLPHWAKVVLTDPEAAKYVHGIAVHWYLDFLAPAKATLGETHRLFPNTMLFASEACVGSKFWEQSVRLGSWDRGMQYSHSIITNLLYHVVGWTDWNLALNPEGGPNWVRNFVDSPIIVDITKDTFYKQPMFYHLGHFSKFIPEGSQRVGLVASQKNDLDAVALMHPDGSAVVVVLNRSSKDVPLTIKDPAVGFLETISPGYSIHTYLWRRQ

Turning to `c1cncc(-c2nc(NC3Cc4ccccc4C3)c3ccccc3n2)c1` [compound 1], for the setting “marked (inh), inhibitor”, the IC50 (as a rule, the point on the concentration scale where inhibition reaches its midpoint) is 7 nM. For `CN(c1nc(-c2cccnc2)nc2ccccc12)C1Cc2ccccc2C1` [compound 2], the IC50 (marked (inh), inhibitor) came out at 2150 nM. Take `CN(Cc1nc2ccccc2[nH]1)c1nc(-c2cccnc2)nc2ccccc12` [compound 15]: the AC50 (usually the concentration at which the activity in the assay is half-maximal) is 8.91 µM. For `c1cncc(-c2nc(NCC3COc4ccccc4O3)c3ccccc3n2)c1` (stereo not drawn) [compound 20], the IC50 (marked (inh), inhibitor) came to 7940 nM. Consider `c1cncc(-c2nc(N3CCNCC3)c3ccccc3n2)c1` [compound 23], for which the IC50 (marked (inh), inhibitor) turned out to be 35500 nM.

`O=C(C1COc2ccccc2O1)N1CCN(c2nc(-c3cccnc3)nc3ccccc23)CC1` (stereo not drawn) [compound 29]: under “marked (inh), inhibitor”, the IC50 amounted to 2240 nM. `Nc1nc(-c2cccnc2)nc2ccccc12` [compound 35]: the “IC50 or AC50 (act)” value is given as “Weak (act)”. For `[N-]=[N+]=Nc1c(F)c(F)c(CNc2nc(-c3cccnc3)nc3ccccc23)c(F)c1F` [compound 37], the “IC50 or AC50 (act)” value is given as “Weak (act)”. For `CN1CCN(c2ccc(C(=O)N3CCN(c4nc(-c5cccnc5)nc5ccccc45)CC3)cc2)CC1` [compound 38], the “IC50 or AC50 (act)” value was “Weak (act)”. With `c1cncc(-c2nc(NC3CCCC3)c3ccccc3n2)c1` [compound 39], under “marked (inh), inhibitor”, the IC50 came out at 790 nM. On to `c1cncc(-c2nc(NC3CCCCC3)c3ccccc3n2)c1` [compound 40], for which the IC50 (marked (inh), inhibitor) was 177 nM.

Turning to `CC(C)N1CCC(Nc2nc(-c3cccnc3)nc3ccccc23)CC1` [compound 41], the IC50 (marked (inh), inhibitor) was 35500 nM. For `c1cncc(-c2nc(NC3CC3)c3ccccc3n2)c1` [compound 42], under “marked (inh), inhibitor”, the IC50 is 39800 nM. For `c1cncc(-c2nc(NC3CCC3)c3ccccc3n2)c1` [compound 43], the IC50 (marked (inh), inhibitor) was 4470 nM.

For the molecule `c1ccc(CN2CCC(Nc3nc(-c4cccnc4)nc4ccccc34)CC2)cc1` [compound 44], the IC50 (marked (inh), inhibitor) turned out to be 31600 nM. For `CN1CCC(Nc2nc(-c3cccnc3)nc3ccccc23)CC1` [compound 45], the “IC50 or AC50 (inh)” value (marked (inh), inhibitor) is reported as “Weak (inh)”. As for `CC1CCCCC1Nc1nc(-c2cccnc2)nc2ccccc12` (stereo not drawn) [compound 48], under “marked (inh), inhibitor”, the IC50 is 89 nM. On to `c1ccc(Nc2nc(-c3cccnc3)nc3ccccc23)cc1` [compound 50], for which the “IC50 or AC50 (act)” value is “Weak (act)”.

Consider `c1ccc(CNc2nc(-c3cccnc3)nc3ccccc23)cc1` [compound 51], for which the IC50 (marked (inh), inhibitor) is 7080 nM. For `c1ccc(CCCNc2nc(-c3cccnc3)nc3ccccc23)cc1` [compound 52], where the note is “marked (inh), inhibitor”, the IC50 came to 1780 nM. With `c1ccc(CCCCNc2nc(-c3cccnc3)nc3ccccc23)cc1` [compound 53], for the setting “marked (inh), inhibitor”, the IC50 is 1580 nM.

`CC(C)(C)Nc1nc(-c2cccnc2)nc2ccccc12` [compound 54]: the “IC50 or AC50 (act)” value is “Weak (act)”. `Fc1cccc(CCNc2nc(-c3cccnc3)nc3ccccc23)c1` [compound 55]: the IC50 (marked (inh), inhibitor) was 141 nM. With `c1cncc(-c2nc(NCC3CCCCC3)c3ccccc3n2)c1` [compound 57], the IC50 (marked (inh), inhibitor) is 354 nM. Same read-out and setting: to `c1cncc(-c2nc(NC3CCCCCC3)c3ccccc3n2)c1` [compound 58] belongs 63 nM; to `c1ccc(CCNc2nc(-c3cccnc3)nc3ccccc23)cc1` [compound 60], 112 nM; to `c1cncc(-c2nc(NCCC3CCCCC3)c3ccccc3n2)c1` [compound 63], 282 nM. As for `FC1(F)CCC(Nc2nc(-c3cccnc3)nc3ccccc23)CC1` [compound 65], the IC50 (marked (inh), inhibitor) came to 316 nM. Regarding `c1cncc(-c2nc(NC3CCc4ccccc43)c3ccccc3n2)c1` (stereo not drawn) [compound 67], the IC50 (marked (inh), inhibitor) is 891 nM. In the case of `c1cncc(-c2nc(NC3CCCc4ccccc43)c3ccccc3n2)c1` (stereo not drawn) [compound 68], the IC50 (marked (inh), inhibitor) stood at 1120 nM. Turning to `c1ccc(CCNc2nc(-c3cccnc3)nc3ccccc23)nc1` [compound 69], the IC50 (marked (inh), inhibitor) came out at 1120 nM. For `c1cncc(CCNc2nc(-c3cccnc3)nc3ccccc23)c1` [compound 70], the IC50 (marked (inh), inhibitor) was determined as 5010 nM. With `c1cncc(-c2nc(NCCc3c[nH]c4ccccc34)c3ccccc3n2)c1` [compound 72], the AC50 came out at 1.28 µM.
